From the NIST ThermoML archive (doi:10.1021/acs.jced.5b00369)
± gives the expanded uncertainty stated by the source.

Test: relative permittivity at zero frequency (dimensionless); xn = mol fraction of the nth substance listed
Settings: 101 kPa, Liquid, two-terminal dielectric cell

ClC(Cl)(Cl)Cl [tetrachloromethane] + C[N+](=O)[O-]
relative permittivity at zero frequency (298.15 K, x2 = 0.00098): 2.24081 ± 0.001
relative permittivity at zero frequency (298.15 K, x2 = 0.001471): 2.24714 ± 0.00051
relative permittivity at zero frequency (298.15 K, x2 = 0.001979): 2.25361 ± 0.00051
relative permittivity at zero frequency (298.15 K, x2 = 0.002444): 2.25959 ± 0.00051
relative permittivity at zero frequency (298.15 K, x2 = 0.002927): 2.26574 ± 0.00051
relative permittivity at zero frequency (298.15 K, x2 = 0.003884): 2.27791 ± 0.00051
relative permittivity at zero frequency (298.15 K, x2 = 0.004245): 2.28249 ± 0.00051
relative permittivity at zero frequency (298.15 K, x2 = 0.00484): 2.29002 ± 0.00051
relative permittivity at zero frequency (298.15 K, x2 = 0.005797): 2.30213 ± 0.00026
relative permittivity at zero frequency (298.15 K, x2 = 0.006743): 2.31404 ± 0.00026
relative permittivity at zero frequency (298.15 K, x2 = 0.007679): 2.32583 ± 0.00026
relative permittivity at zero frequency (298.15 K, x2 = 0.008374): 2.33457 ± 0.00026
relative permittivity at zero frequency (298.15 K, x2 = 0.01041): 2.35982 ± 0.00026
relative permittivity at zero frequency (298.15 K, x2 = 0.01242): 2.38483 ± 0.00026
relative permittivity at zero frequency (298.15 K, x2 = 0.01439): 2.40939 ± 0.00026
relative permittivity at zero frequency (298.15 K, x2 = 0.01577): 2.42642 ± 0.00026
relative permittivity at zero frequency (298.15 K, x2 = 0.01737): 2.44616 ± 0.00026
relative permittivity at zero frequency (298.15 K, x2 = 0.01871): 2.46233 ± 0.00026
relative permittivity at zero frequency (298.15 K, x2 = 0.02204): 2.50367 ± 0.00026
relative permittivity at zero frequency (298.15 K, x2 = 0.02674): 2.56122 ± 0.00026
relative permittivity at zero frequency (298.15 K, x2 = 0.03418): 2.65322 ± 0.00026
relative permittivity at zero frequency (298.15 K, x2 = 0.04333): 2.76524 ± 0.00026
relative permittivity at zero frequency (298.15 K, x2 = 0.0523): 2.87591 ± 0.00026
relative permittivity at zero frequency (298.15 K, x2 = 0.0567): 2.92988 ± 0.00026
relative permittivity at zero frequency (318.15 K, x2 = 0.000162): 2.23812 ± 0.00098
relative permittivity at zero frequency (318.15 K, x2 = 0.000418): 2.24125 ± 0.001
relative permittivity at zero frequency (318.15 K, x2 = 0.0008265): 2.24641 ± 0.001
relative permittivity at zero frequency (318.15 K, x2 = 0.001238): 2.25158 ± 0.0005
relative permittivity at zero frequency (318.15 K, x2 = 0.001648): 2.25667 ± 0.0005
relative permittivity at zero frequency (318.15 K, x2 = 0.002055): 2.26176 ± 0.0005
relative permittivity at zero frequency (318.15 K, x2 = 0.00246): 2.26679 ± 0.0005
relative permittivity at zero frequency (318.15 K, x2 = 0.003263): 2.2768 ± 0.0005
relative permittivity at zero frequency (318.15 K, x2 = 0.003558): 2.28051 ± 0.0005
relative permittivity at zero frequency (318.15 K, x2 = 0.004468): 2.29186 ± 0.0005
relative permittivity at zero frequency (318.15 K, x2 = 0.005663): 2.30678 ± 0.00026
relative permittivity at zero frequency (318.15 K, x2 = 0.007033): 2.3239 ± 0.00026
relative permittivity at zero frequency (318.15 K, x2 = 0.007748): 2.33263 ± 0.00026
relative permittivity at zero frequency (318.15 K, x2 = 0.009707): 2.35737 ± 0.00027
relative permittivity at zero frequency (318.15 K, x2 = 0.0113): 2.37756 ± 0.00026
relative permittivity at zero frequency (318.15 K, x2 = 0.01572): 2.4327 ± 0.00026
relative permittivity at zero frequency (318.15 K, x2 = 0.02009): 2.48822 ± 0.00026
relative permittivity at zero frequency (318.15 K, x2 = 0.02486): 2.54795 ± 0.00026
relative permittivity at zero frequency (318.15 K, x2 = 0.02873): 2.59732 ± 0.00027
relative permittivity at zero frequency (318.15 K, x2 = 0.03299): 2.65111 ± 0.00027
relative permittivity at zero frequency (318.15 K, x2 = 0.0414): 2.75865 ± 0.00027
relative permittivity at zero frequency (318.15 K, x2 = 0.04472): 2.80151 ± 0.00027
relative permittivity at zero frequency (318.15 K, x2 = 0.054): 2.91886 ± 0.00027
relative permittivity at zero frequency (318.15 K, x2 = 0.06623): 3.07885 ± 0.00027
relative permittivity at zero frequency (318.15 K, x2 = 0.07426): 3.18574 ± 0.00027
relative permittivity at zero frequency (318.15 K, x2 = 0.08027): 3.26614 ± 0.00027
